Results from ChEMBL document CHEMBL5308504, “Tm Shift (DSF) assay results for EUbOPEN Chemogenomics Library” (2023).
“And” between values parts separate entries of the source, which are not always exact repeats. Identical values can stand only once.

Tests used:
Peregrin (Homo sapiens) = target: T1, Peregrin (Homo sapiens) (UniProt P55201); conditions: Compound concentration 20.0 uM, Protein concentration 2.0 uM, Result type QC Liability
T1 sequence (whole entry): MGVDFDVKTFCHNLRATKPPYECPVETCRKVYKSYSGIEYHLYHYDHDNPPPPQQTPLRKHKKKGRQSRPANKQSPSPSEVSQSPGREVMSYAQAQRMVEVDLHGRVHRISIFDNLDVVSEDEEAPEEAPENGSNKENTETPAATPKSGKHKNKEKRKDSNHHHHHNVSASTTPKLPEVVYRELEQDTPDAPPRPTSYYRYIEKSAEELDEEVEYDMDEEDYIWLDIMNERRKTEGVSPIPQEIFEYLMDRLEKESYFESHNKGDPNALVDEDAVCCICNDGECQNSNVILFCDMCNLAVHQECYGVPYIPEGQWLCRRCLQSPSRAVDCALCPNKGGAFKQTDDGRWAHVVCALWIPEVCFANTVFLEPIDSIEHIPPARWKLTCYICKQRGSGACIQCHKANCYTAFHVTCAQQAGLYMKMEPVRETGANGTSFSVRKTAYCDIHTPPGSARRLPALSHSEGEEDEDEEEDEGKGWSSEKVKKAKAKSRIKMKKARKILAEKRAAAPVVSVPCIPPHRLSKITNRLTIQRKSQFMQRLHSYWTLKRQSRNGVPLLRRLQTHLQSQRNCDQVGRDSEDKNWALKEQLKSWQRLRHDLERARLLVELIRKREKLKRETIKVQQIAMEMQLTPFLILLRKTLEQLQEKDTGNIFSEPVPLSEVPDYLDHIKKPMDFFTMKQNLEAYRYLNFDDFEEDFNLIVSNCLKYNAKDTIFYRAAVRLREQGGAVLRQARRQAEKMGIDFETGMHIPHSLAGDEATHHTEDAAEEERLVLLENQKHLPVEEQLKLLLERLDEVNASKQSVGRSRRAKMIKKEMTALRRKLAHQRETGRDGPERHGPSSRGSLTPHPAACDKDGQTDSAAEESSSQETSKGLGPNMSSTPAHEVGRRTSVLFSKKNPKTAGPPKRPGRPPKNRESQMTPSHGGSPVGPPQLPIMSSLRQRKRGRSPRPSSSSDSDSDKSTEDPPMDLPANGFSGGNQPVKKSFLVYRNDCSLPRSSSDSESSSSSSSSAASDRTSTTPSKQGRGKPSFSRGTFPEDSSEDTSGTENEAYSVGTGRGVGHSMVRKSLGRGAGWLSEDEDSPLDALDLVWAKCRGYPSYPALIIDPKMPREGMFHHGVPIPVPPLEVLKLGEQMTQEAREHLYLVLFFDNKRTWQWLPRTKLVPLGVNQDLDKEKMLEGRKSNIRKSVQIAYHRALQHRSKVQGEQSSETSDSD

[1] = target: Fibroblast growth factor receptor 3 (Homo sapiens) (UniProt P22607); conditions: Compound concentration 20.0 uM, Protein concentration 2.0 uM, Result type QC Liability
Chain of Fibroblast growth factor receptor 3 (Homo sapiens) (P22607 23-806 limits assumed): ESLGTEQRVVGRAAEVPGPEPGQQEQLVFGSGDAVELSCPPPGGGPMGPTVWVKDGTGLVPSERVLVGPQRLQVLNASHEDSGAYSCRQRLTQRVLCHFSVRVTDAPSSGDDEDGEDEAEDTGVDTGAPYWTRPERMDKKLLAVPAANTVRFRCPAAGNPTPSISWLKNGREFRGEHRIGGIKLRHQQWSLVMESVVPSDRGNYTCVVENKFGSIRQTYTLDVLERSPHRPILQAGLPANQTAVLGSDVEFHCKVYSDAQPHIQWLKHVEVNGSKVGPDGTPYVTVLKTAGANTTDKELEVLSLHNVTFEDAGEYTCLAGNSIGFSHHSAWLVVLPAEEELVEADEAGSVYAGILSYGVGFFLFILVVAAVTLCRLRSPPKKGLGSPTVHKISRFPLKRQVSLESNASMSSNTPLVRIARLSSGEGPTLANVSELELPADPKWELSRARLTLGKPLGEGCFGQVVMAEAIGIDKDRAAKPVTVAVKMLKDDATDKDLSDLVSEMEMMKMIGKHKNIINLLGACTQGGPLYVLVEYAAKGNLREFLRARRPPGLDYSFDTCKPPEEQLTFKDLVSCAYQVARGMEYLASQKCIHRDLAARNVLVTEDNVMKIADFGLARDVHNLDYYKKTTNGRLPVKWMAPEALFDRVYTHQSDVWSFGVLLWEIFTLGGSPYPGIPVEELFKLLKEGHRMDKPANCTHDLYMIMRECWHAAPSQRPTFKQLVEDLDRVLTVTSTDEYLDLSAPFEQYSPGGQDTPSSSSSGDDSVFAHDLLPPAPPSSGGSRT
Description: Thermal Shift Assay. Domain: start/stop: P449-E759

Row | SMILES | ΔTm (Peregrin (Homo sapiens)) | ΔTm [1]
1 | COc1cc2c(cc1CC=C(C)C)C(=O)C[C@@H](c1ccc(O)cc1)O2 | 1.25 °C | 2.85 °C
2 | CCCCCCCN(CCc1ccc(SC(C)(C)C(=O)O)cc1)C(=O)Nc1ccc(F)cc1F | -1.59 °C | 0.87 °C
3 | CC(=O)Nc1nc(CN2CCC[C@H](Cc3cc(C)nc(C)c3)C2)cs1 | -1.25 °C | 0.78 °C
4 | C=C1/C(=C\C=C2/CCC[C@]3(C)[C@@H]([C@H](C)CCCC(C)(C)O)CC[C@@H]23)C[C@@H](O)C[C@@H]1O | -2.59 °C | 1.25 °C
5 | CC(F)(F)CN1C(=O)c2[nH]nc(-c3cccc4[nH]c(=O)oc34)c2C1c1ccc(Oc2cc(C(F)(F)F)cc(C(F)(F)F)c2)cc1 (stereo not drawn) | -0.66 °C | -5.32 °C
6 | CN1CCN(c2ccc(Nc3ncc4cc5n(c4n3)C3(CCCCC3)CNC5=O)nc2)CC1 | -1.56 °C | 0.83 °C
7 | COC(=O)c1sccc1S(=O)(=O)Nc1ccc(Nc2ccccc2)cc1OC | -1.04 °C | 0.39 °C
8 | Nc1ncnc2c1ccn2[C@@H]1O[C@H]([C@@H](O)c2ccccc2)[C@@H](O)[C@H]1O | -1.55 °C | 0.72 °C
9 | O=C(Cc1ccccc1[N+](=O)[O-])Nc1ccc(-c2ccc(C(O)(C(F)(F)F)C(F)(F)F)cc2F)cc1 | 1.8 °C | 1.47 °C
10 | O=C(N[C@H](Cc1ccccc1)C(=O)O)c1cccc(OCc2cccnc2)c1 | -2.18 °C | 0.53 °C
11 | CCOP(=O)(OCC)C(=Cc1cc(C(C)(C)C)c(O)c(C(C)(C)C)c1)P(=O)(OCC)OCC | -1.65 °C | 0.83 °C
12 | CC(=O)Nc1cccc(-n2c(=O)n(C3CC3)c(=O)c3c(Nc4ccc(I)cc4F)n(C)c(=O)c(C)c32)c1 | -0.16 °C | 0.38 °C
13 | CN1CCN(C(=O)c2ccc3cc2OCCOCCNc2ccn4ncc-3c4n2)CC1 | -1.15 °C | 2.23 °C
14 | CS(=O)(=O)NC(=O)CCC/C=C\C[C@H]1C(=O)C[C@@H](O)[C@@H]1/C=C/[C@@H](O)COc1ccccc1 | -1.73 °C | 0.49 °C
15 | CO[C@@H](C)CN1CC[C@]2(C)c3cc(O)ccc3C[C@H]1C2(C)C | -3.01 °C | 1.13 °C
16 | CP(C)(=O)c1ccc(CNC(=O)C2CCN(S(=O)(=O)c3cc(Cl)cc(Cl)c3)CC2)cc1 | -3.29 °C | 0.53 °C
17 | NC(=O)c1ccc(-c2nc(-c3ccc4c(c3)OCCO4)c(-c3ccccn3)[nH]2)cc1 | 0.84 °C | 1.37 °C
18 | O=C(Nc1ccc(OC(F)(F)Cl)cc1)c1cnc(N2CC[C@@H](O)C2)c(-c2cc[nH]n2)c1 | -3.77 °C | 0.66 °C
19 | CC1CCN(c2ccnc(NCc3cn(C)cn3)n2)CC1 | -2.32 °C | 0.69 °C
20 | CCc1ccc(N(CC(C)C)S(=O)(=O)c2ccc(OCC3CCOCC3)c(CO)c2)cc1 | -0.2 °C | 0.5 °C

Row | SMILES | ΔTm (Peregrin (Homo sapiens)) | ΔTm [1]
21 | Cc1cc2c(-c3ccco3)cnc(N[C@@H]3CCN(C)C[C@H]3C(=O)NC3CCCCC3)c2[nH]c1=O | -0.68 °C | 0.65 °C
22 | CNc1ncc2cc(-c3ccc(-c4cccc(C)n4)cc3Cl)c(=O)n(C[C@H]3OC[C@H](N)CO3)c2n1 | -2.41 °C | 1.85 °C
23 | Cc1cc(-c2cc3ncccc3c(OC[C@H]3CCCNC3)n2)ccc1N(C)C | -1.71 °C | 3.21 °C
24 | COc1cc2ncnc(Nc3cccc(O)c3)c2cc1OC | -1.59 °C | 2.74 °C
25 | COC[C@@H](C)N[C@H]1CC[C@H](Nc2cc(-c3cccc(NCC4(C#N)CCOCC4)n3)c(Cl)cn2)CC1 | -1.02 °C | 0.39 °C
26 | COc1cc(C(=O)NCCOCCOCCOCC(=O)N[C@H](C(=O)N2C[C@@H](O)C[C@H]2C(=O)NCc2ccc(-c3scnc3C)cc2)C(C)(C)C)ccc1Nc1ncc(C(F)(F)F)c(Oc2cccc3c2C(=O)CC3)n1 | 1.72 °C | 1.69 °C
27 | CCNC1=N[C@@H]2[C@@H](O)[C@H](O)[C@@H](CO)O[C@@H]2S1 | 0.02 °C | 0.73 °C
28 | O=C1Nc2ccc(C(=O)c3ccco3)cc2C1=Cc1cc(Cl)c(O)c(Cl)c1 | 0.59 °C | 2.35 °C
29 | CC/C(=C(\c1ccccc1)c1ccc(OCCN(C)C)cc1)c1ccccc1 | -3.71 °C | 0.3 °C
30 | COc1cc(OC)cc(-c2cc3cnc(N)nc3nc2NC(=O)NC(C)(C)C)c1 | -0.52 °C and -0.82 °C | 5.05 °C and 9.51 °C
31 | CC(C)(O)c1cn(-c2ccc(-c3cccc(S(C)(=O)=O)c3)cc2)c(C(C)(C)c2ccccc2Cl)n1 | -1.46 °C | -2.28 °C
32 | CO[C@H](C)CN1CC[C@@]2(C)c3ccc(O)cc3C[C@@H]1C2(C)C | -2.03 °C | 0.41 °C
33 | Cc1ncsc1-c1ccc(CNC(=O)[C@@H]2C[C@@H](O)CN2C(=O)[C@@H](NC(=O)C2(F)CC2)C(C)(C)C)c(OCCOc2ccc(CN3CCN(c4cc(-c5ccccc5O)nnc4N)CC3)cc2)c1 | 5.55 °C | -0.75 °C
34 | Cc1ccc(-n2nc(C(C)(C)C)cc2NC(=O)Nc2ccc(OCCN3CCOCC3)c3ccccc23)cc1 | -3.09 °C and -0.42 °C | 3.18 °C and 3.23 °C
35 | Cc1ccc2c(N)c(C(=O)NC3CCc4cc(N5CC6CCC(C5)N6)ccc4C3)sc2n1 (stereo not drawn) | -1.37 °C | 0.55 °C
36 | CN1C(=O)c2c(nn(Cc3ccc(-c4cccc(F)n4)cc3)c2Nc2ccccc2)N2C1=N[C@@H]1CCC[C@@H]12 | -3.07 °C | -0.44 °C
37 | O=C1CCC(N2Cc3cc(CNC(=O)C(F)(F)c4ccc(Cl)cc4)ccc3C2=O)C(=O)N1 (stereo not drawn) | -1.67 °C | 0.44 °C
38 | CC1CNCCc2c1nc1ccnn1c2N1CC(C(=O)N2CCC(C)(C)C2)C1 (stereo not drawn) | -1.64 °C | 0.56 °C
39 | COC1(C#Cc2ccc(Cl)c(-c3ncc4c(n3)-c3sc(NC(C)=O)nc3CC4)c2)CCN(C)CC1 | -1.7 °C | 0.77 °C
40 | CC(C)N(C(=O)C1CCOCC1)c1cc(F)c(Oc2ncc(Cn3nccn3)cc2C(F)(F)F)cc1C(=O)O | -3.32 °C | 0.39 °C

Row | SMILES | ΔTm (Peregrin (Homo sapiens)) | ΔTm [1]
41 | c1ccc2c(c1)SCc1c-2[nH]c2ccccc12 | -9.42 °C | 0.81 °C
42 | Cc1nn(-c2nc3ccc(Cl)c(Cl)c3[nH]2)c(O)c1C1OC(=O)c2ccccc21 (stereo not drawn) | -3.79 °C | 0.7 °C
43 | CNC(=O)c1ccc(C)c(-n2c(C)cc(OCc3ccc(F)cc3F)c(Br)c2=O)c1 | -1.84 °C | -1.16 °C
44 | CC[C@@H]1C(=O)N(C)c2cnc(Nc3ccc(C(=O)NC4CCN(C)CC4)cc3OC)nc2N1C1CCCC1 | 1.16 °C | 0.55 °C
45 | Cc1nn(C)c(COc2ccc(N3CCN(S(=O)(=O)N(C)C)CC3)cc2)c1-c1cccc2c(CCCOc3cccc4ccccc34)c(C(=O)O)n(CCN3CCOCC3)c12 | -2.4 °C | 0.47 °C
46 | Cn1cc(-c2ccc(N(C(=O)NCc3ccccc3)[C@H]3CC[C@H](Nc4ccc(C#N)cn4)CC3)cc2)ccc1=O | -0.32 °C | 1.75 °C
47 | CCOC(=O)c1cc2cc(-c3cc(C(=O)NCc4ccc(C(=O)O)cc4)nn3C)ccc2[nH]1 | -3.42 °C | 0.83 °C
48 | Cc1c(CCC(=O)O)cccc1NC(=O)[C@@H](c1ccc(-c2cncc(Cl)c2)c(F)c1)C1CCCC1 | -4.03 °C | 0.03 °C
49 | CC(C)(O)CNC(=O)N1C(=O)N(c2cccc(C(F)(F)F)c2)C2=C(C(=O)CC2)[C@H]1c1ccc(C#N)cc1 | -1.94 °C | 0.72 °C
50 | CCc1c(-c2ccc3[nH]ncc3c2)cnc(N)c1-c1ccc(O)cc1 | -1.61 °C | 2.78 °C
51 | COCCc1ccc(-c2c(C)nc3c(N4CCOCC4)ccnn23)cn1 | -2.19 °C | 1.27 °C
52 | Clc1cccc(Nc2nccc(NCCCN3CCOCC3)n2)c1 | -1.42 °C | 1.15 °C
53 | C[C@@H]1COCCN1c1cc(=O)n2c(n1)N(Cc1cncc(Cl)c1)[C@H](C(F)(F)F)CC2 | -3.92 °C | 0.57 °C
54 | CC(C=CC1=C(C)CCCC1(C)C)=CC=CC(C)=CC(=O)O | -2.28 °C | 0.68 °C
55 | C[C@H](CCOc1cccc(CC(=O)O)c1)N(Cc1cccc(C(F)(F)F)c1Cl)CC(c1ccccc1)c1ccccc1 | -4.82 °C | 2.11 °C
56 | CC(=O)N1CCC(c2ccc(C(=O)NC3=NCCN3)cc2C(F)(F)F)CC1 | -1.55 °C | 0.6 °C
57 | CCn1c(CNC(=O)c2ncc(C)nc2N)[n+](CC)c2ccc(C(=O)N(C)CCN(C)C)cc21 | -1.78 °C | 0.52 °C
58 | O=C(O)C[C@H]1CCn2c1c(Sc1ccc(Cl)cc1)c1ccc(F)cc12 | -3.8 °C | -0.05 °C
59 | C=CC(=O)Nc1cccc(C)c1Nc1ncc2cc(-c3c(Cl)c(OC)cc(OC)c3Cl)ccc2n1 | -0.73 °C | 1.71 °C
